Measured values from EP4759807A1, “PROTEOLYSIS TARGETING CHIMERA COMPOUND FOR DEGRADING IRAK4 AND USE THEREOF” (Shenzhen Zhongge Biological Technology Co., Ltd., priority 2023, dated 2025).
Where two headings read alike, the source gives them in different places.

Biological target: T1, IRAK4 (Homo sapiens, UniProt Q9NWZ3)
T1 sequence (Q9NWZ3 1-460): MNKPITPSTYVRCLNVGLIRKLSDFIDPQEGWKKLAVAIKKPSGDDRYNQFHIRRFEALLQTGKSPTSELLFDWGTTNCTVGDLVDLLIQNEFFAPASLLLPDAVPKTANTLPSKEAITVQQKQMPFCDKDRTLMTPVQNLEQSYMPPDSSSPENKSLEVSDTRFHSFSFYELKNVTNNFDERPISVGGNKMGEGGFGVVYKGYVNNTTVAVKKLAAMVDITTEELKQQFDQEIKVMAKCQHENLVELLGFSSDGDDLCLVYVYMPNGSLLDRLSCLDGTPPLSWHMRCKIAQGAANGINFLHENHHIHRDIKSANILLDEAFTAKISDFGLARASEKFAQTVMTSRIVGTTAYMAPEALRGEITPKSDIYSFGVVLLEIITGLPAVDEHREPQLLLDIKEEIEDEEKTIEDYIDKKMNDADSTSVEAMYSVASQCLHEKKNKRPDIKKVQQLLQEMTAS
Assay: Hibit fluorescence detection of proteolysis (IRAK4-HiBiT in HEK293T cells)
Assay type: cell-based
Design: host or cells: HEK293T (ATCC)
Conditions: for Dmax: HEK-293T
How it was run: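 Degradation read-out: luminescence from lytic HiBiT detection (15 min, room temperature) after 24 h compound exposure (37 °C, 5% CO2) of HEK293T cells transiently expressing IRAK4 fused to a HiBiT tag. Data fitted to a bell-shaped four-parameter model giving two EC50 values.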

[1] = IRAK4-HiBiT, HEK293T cells, 24 h
[2] = IRAK4-HiBiT, HEK293T cells, 24 h, read-out: DC50
[3] = IRAK4-HiBiT, HEK293T cells, 24 h, read-out: Dmax

SMILES	Dmax	DC50 [1]	DC50 [2]	Dmax [3]
Cn1c(=O)n(C2CCC(=O)NC2=O)c2cccc(C#CC3CCN(C[C@H]4CC[C@H](n5cc(-n6cc(-c7cnn8ccc(N9CCOCC9)nc78)nn6)c(C(F)F)n5)CC4)CC3)c21 (some centres unmarked) [Example 17]	70 to 80%	1 to 5 nM	–	–
Cn1c(=O)n(C2CCC(=O)NC2=O)c2cccc(N[C@H]3CC[C@H](N(C)C[C@H]4CC[C@H](n5cc(-n6cc(-c7cnn8ccc(NCC9CC9)nc78)nn6)c(C(F)F)n5)CC4)CC3)c21 (some centres unmarked) [Compound 226]	> 80%	–	< 0.5 nM	–
Cn1c(=O)n(C2CCC(=O)NC2=O)c2cccc(CN3CC4(C3)CN(C[C@H]3CC[C@H](n5cc(-n6cc(-c7cnn8ccc(N9CCOCC9)nc78)nn6)c(C(F)F)n5)CC3)C4)c21 (some centres unmarked) [Example 12, 3-(4-((6-(((1r,4r)-4-(3-(difluoromethyl)-4-(4-(5-morpholinopyrazolo[1,5-a]pyrimidin-3-yl)-1H -1,2,3-triazol-1-yl)-1H-pyrazol-1-yl)cyclohexyl)methyl)-2,6-diazaspiro[3.3]hept-2-yl)methyl)-3-methyl-2-oxo-2,3-dihydro-1H-benzo[d]imidazol-1-yl)piperidine-2,6-dione]	70 to 80%	< 0.5 nM	–	–
CN1CCN(c2ccn3ncc(-c4cn(-c5cn([C@H]6CC[C@H](CN(C)[C@H]7CC[C@H](Nc8cccc9c8n(C)c(=O)n9C8CCC(=O)NC8=O)CC7)CC6)nc5C(F)F)nn4)c3n2)CC1 (some centres unmarked) [Compound 230]	60 to 70%	–	0.5 to 1 nM	–
Cn1c(=O)n(C2CCC(=O)NC2=O)c2cccc(N3CCN(C4CCN(C[C@H]5CC[C@H](n6cc(-n7cc(-c8cnn9cc(C#N)cnc89)nn7)c(C(F)F)n6)CC5)CC4)CC3)c21 (some centres unmarked) [Compound 206]	< 60%	–	0.5 to 1 nM	–
Cn1c(=O)n(C2CCC(=O)NC2=O)c2cccc(CN3CCC4(CC3)CN(C[C@H]3CC[C@H](n5cc(-n6cc(-c7cnn8ccc(N9CCOCC9)nc78)nn6)c(C(F)F)n5)CC3)C4)c21 (some centres unmarked) [Example 14]	< 60%	0.5 to 1 nM	–	–
Cn1c(=O)n(C2CCC(=O)NC2=O)c2cccc(C#CC3CCN(C[C@H]4CC[C@H](n5cc(-n6cc(-c7ccc8cc(C(N)=O)cnn78)nn6)c(C(F)F)n5)CC4)CC3)c21 (some centres unmarked) [Example 79]	70 to 80%	0.5 to 1 nM	–	–
CN1CCN(c2ccn3ncc(-c4cn(-c5cn([C@H]6CC[C@H](CN7CCC8(CC7)CCN(c7cccc9c7n(C)c(=O)n9C7CCC(=O)NC7=O)C8)CC6)nc5C(F)F)nn4)c3n2)CC1 (some centres unmarked) [Compound 228]	70 to 80%	–	< 0.5 nM	–
Cn1c(=O)n(C2CCC(=O)NC2=O)c2cccc(N3CCN(C4CCN(C[C@H]5CC[C@H](n6cc(-n7cc(-c8cnn9ccc(N%10CCC(C)(O)CC%10)nc89)nn7)c(C(F)F)n6)CC5)CC4)CC3)c21 (some centres unmarked) [Compound 236]	> 80%	–	< 0.5 nM	–
Cn1c(=O)n(C2CCC(=O)NC2=O)c2cccc(N3CC4CCC(C3)N4C[C@H]3CC[C@H](n4cc(-n5cc(-c6ccc7cc(C(N)=O)cnn67)nn5)c(C(F)F)n4)CC3)c21 (stereo partly drawn) [Example 86, 7-(1-(3-(difluoromethyl)-1-((1R,4R)-4-(3-(1-(2,6-dioxy-3-yl)-3-methyl-2-oxo-2,3-dihydro-1H-benzo[d]imidazol-4-yl)-3,8-diazabicyclo[3.2.1]oct-8-yl)methyl)cyclohexyl-1H-pyrazol-4-yl)-1H-1,2,3-triazol-4-yl)pyrrolo[1,2-b]pyridazine-3-carboxamide]	> 80%	1 to 5 nM	–	–
Cn1c(=O)n(C2CCC(=O)NC2=O)c2cccc(N3CCC4(CCN(C[C@H]5CC[C@H](n6cc(-n7cc(-c8ccc9cc(C(N)=O)cnn89)nn7)c(C(F)F)n6)CC5)C4)C3)c21 (some centres unmarked) [Example 80, 7-(1-(3-(difluoromethyl)-1-((1r,4r)-4-(7-(1-(2,6-dioxy-3-yl)-3-methyl-2-oxo-2,3-dihydro-1H-benzo[d]imidazol-4-yl)-2,7-diazaspiro[4.4]non-2-yl)methyl)-1H-pyrazol-4-yl)-1H-1,2,3-triazol-4-yl)pyrrolo[1,2-b]pyridazine-3-carboxamide]	> 80%	< 0.5 nM	–	–
Cn1c(=O)n(C2CCC(=O)NC2=O)c2cccc(CN3CCN(C[C@H]4CC[C@H](n5cc(-n6cc(-c7ccc8cc(C(N)=O)cnn78)nn6)c(C(F)F)n5)CC4)CC3)c21 (some centres unmarked) [Example 68]	> 80%	< 0.5 nM	–	–
Cn1c(=O)n(C2CCC(=O)NC2=O)c2cccc(N3CCC4(CC3)CN(C[C@H]3CC[C@H](n5cc(-n6cc(-c7cnn8ccc(N9CCOCC9)nc78)nn6)c(C(F)F)n5)CC3)C4)c21 (some centres unmarked) [Example 47]	70 to 80%	< 0.5 nM	–	–
Cn1c(=O)n(C2CCC(=O)NC2=O)c2cccc(N3CCN(C[C@H]4CC[C@H](n5cc(-n6cc(-c7cnn8ccc(NCCC(C)(C)O)nc78)nn6)c(C(F)F)n5)CC4)CC3)c21 (some centres unmarked) [Compound 239]	> 80%	–	< 0.5 nM	–
NC(=O)c1cnn2c(-c3cn(-c4cn(C5CCN(CC6CCN(c7ccc8c(c7)C(=O)N(C7CCC(=O)NC7=O)C8=O)CC6)CC5)nc4C(F)F)nn3)ccc2c1 (centres unmarked) [Example 94, 7-(1-(3-(difluoromethyl)-1-(1-((1-(2-(2,6-dioxopiperidin-3-yl)-1,3-dioxoisoindolin-5-yl)piperidin-4-yl)methyl)piperidin-4-yl)-1H-pyrazol-4-yl)-1H-1,2,3-triazol-4-yl)pyrrolo[1,2-b]pyridazine-3-carboxamide]	–	–	< 0.5 nM	< 60%
Cn1c(=O)n(C2CCC(=O)NC2=O)c2cccc(C#CC3CN(C[C@H]4CC[C@H](n5cc(-n6cc(-c7cnn8ccc(N9CCOCC9)nc78)nn6)c(C(F)F)n5)CC4)C3)c21 (some centres unmarked) [Example 27]	60 to 70%	< 0.5 nM	–	–
Cn1c(=O)n(C2CCC(=O)NC2=O)c2cccc(N3CC4CN(C[C@H]5CC[C@H](n6cc(-n7cc(-c8cnn9ccc(N%10CCOCC%10)nc89)nn7)c(C(F)F)n6)CC5)CC4C3)c21 (stereo partly drawn) [Example 33, 3-(4-((1R,4R)-4-(3-(difluoromethyl)-4-(4-(5-morpholinopyrazolo[[1,5-a]pyrimidin-3-yl)-1H-1,2,3-triazol-1-yl)-1H-pyrazol-1-yl)cyclohexyl)methylhexahydropyrrolo[3,4-c]pyrrol-2(1H)-yl)-3-methyl-2-oxo-2,3-dihydro-1H-benzo[d]imidazol-1-yl)piperidine-2,6-dione]	60 to 70%	< 0.5 nM	–	–
Cc1c(/C=C2\C(=O)Nc3ccc(S(=O)(=O)Nc4ccc(F)cc4)cc32)[nH]c2cc(N3CCN(CC4CCN(c5ccc(C(=O)NC6CCC(=O)NC6=O)c(F)c5)CC4)CC3)ccc12 (centres unmarked) [Example 22, N-(2,6-dioxopiperidin-3-yl)-2-fluoro-4-(4-{[4-(2-{[(3Z)-5-[(4-fluorophenyl)sulfamoyl]-2-oxo-2,3-dihydro-1H-indol-3-ylidene]methyl}-3-methyl-1H-indol-6-yl)piperazin-1-yl]methyl}piperidin-1-yl)benzamide]	–	–	> 5 nM	< 60%
Cn1c(=O)n(C2CCC(=O)NC2=O)c2cccc(C#CC3CN(C[C@H]4CC[C@H](n5cc(-n6cc(-c7ccc8cc(C(N)=O)cnn78)nn6)c(C(F)F)n5)CC4)C3)c21 (some centres unmarked) [Example 87]	70 to 80%	0.5 to 1 nM	–	–
Cn1c(=O)n(C2CCC(=O)NC2=O)c2cccc(N3CCN(C[C@H]4CC[C@H](n5cc(-n6cc(-c7cnn8ccc(NCC9CC9)nc78)nn6)c(C(F)F)n5)CC4)CC3)c21 (some centres unmarked) [Compound 225]	70 to 80%	–	< 0.5 nM	–
Cn1c(=O)n(C2CCC(=O)NC2=O)c2cccc(C3CCN(C[C@H]4CC[C@H](n5cc(-n6cc(-c7cnn8ccc(N9CCOCC9)nc78)nn6)c(C(F)F)n5)CC4)CC3)c21 (some centres unmarked) [Example 11, 3-(4-(1-(((1r,4r)-4-(3-(difluoromethyl)-4-(4-(5-morpholinopyrazolo[1,5-a]pyrimidin-3-yl)-1H-1,2,3-triazol-1-yl)-1H-pyrazol-1-yl)cyclohexyl)methyl)piperidin-4-yl)-3-methyl-2-oxo-2,3-dihydro-1H-benzo[d]imidazol-1-yl)piperidine-2,6-dione]	> 80%	< 0.5 nM	–	–
Cn1c(=O)n(C2CCC(=O)NC2=O)c2cccc(N3CC4CCC(C3)N4C[C@H]3CC[C@H](n4cc(-n5cc(-c6cnn7ccc(N8CCOCC8)nc67)nn5)c(C(F)F)n4)CC3)c21 (stereo partly drawn) [Example 49, 3-(4-((1R,4R)-4-(3-(difluoromethyl)-4-(4-(5-morpholinopyrazolo[[1,5-a]pyrimidin-3-yl)-1H-1,2,3-triazol-1-yl)-1H-pyrazol-1-yl)cyclohexyl)-3,8-diazabicyclo[3.2.1]oct-3-yl)-3-methyl-2-oxo-2,3-dihydro-1H-benzo[d]imidazol-1-yl)piperidine-2,6-dione]	70 to 80%	1 to 5 nM	–	–
Cn1c(=O)n(C2CCC(=O)NC2=O)c2cccc(C#CCOC3CCN(C[C@H]4CC[C@H](n5cc(-n6cc(-c7ccc8cc(C(N)=O)cnn78)nn6)c(C(F)F)n5)CC4)CC3)c21 (some centres unmarked) [Example 65]	60 to 70%	< 0.5 nM	–	–
Cn1c(=O)n(C2CCC(=O)NC2=O)c2cccc(N3CCN(C[C@H]4CC[C@H](n5cc(-n6cc(-c7ccc8cc(C(N)=O)cnn78)nn6)c(C(F)F)n5)CC4)CC3)c21 (some centres unmarked) [Example 57]	70 to 80%	< 0.5 nM	–	–
Cn1c(=O)n(C2CCC(=O)NC2=O)c2cccc(N3CCN(C4CN(C[C@H]5CC[C@H](n6cc(-n7cc(-c8cnn9ccc(N%10CCOCC%10)nc89)nn7)c(C(F)F)n6)CC5)C4)CC3)c21 (some centres unmarked) [Example 44]	> 80%	< 0.5 nM	–	–
